The target in data set [1] is T1, BCL6 (Homo sapiens, UniProt P41182). As to conditions: greater than 50 or even 200; cited from earlier work.
The conditions of data set [2]: animal level; cited from earlier work.
The target of data set [3] is T1, BCL6. Particulars: cited from earlier work.
Data set [4] has as its system SKOV3 cells. The experiment in a line: Apoptosis by AnnexinV/PI flow cytometry, SKOV3. Type of data set: cell-based, human. As to conditions: SKOV3, 48 h. (In general: Flow cytometry measures light scatter and fluorescence of single cells or particles in a stream.)
The test system of data set [5] is ES-2 cells. The experiment in a line: Apoptosis by AnnexinV/PI flow cytometry, ES-2. Particulars: ES-2, 48 h. Type of data set: cell-based, human.
Data set [6] is described as follows: Behaviour and adverse reactions in ES-2 intraperitoneal metastasis mice. As to conditions: 50mg/kg, continuous dosing, 30 days.
Data set [7] deals with PARP. The experiment in a line: PARP protein by electrophoresis (blot), ES-2. Type of data set: cell-based, human.
Data set [8] deals with BCL6 downstream genes ATR, P53, CDKN1A (BCL6下游基因). The experiment in a line: qPCR of BCL6 downstream genes in SKOV3 xenograft. The data set is classed as in vivo, human SKOV3 cells in nude mouse. Background: In qPCR the cycle at which signal appears reflects the starting amount.
Data set [9] relates to SKOV3 cells. The experiment in a line: Transwell invasion assay, SKOV3. Type of data set: cell-based, human.
Data set [10] relates to SKOV3 cells. The experiment in a line: Scratch lateral migration assay, SKOV3. Type of data set: cell-based, human. Particulars: 1, 5, 10 μM, about 12 h.
Another data set has as its system CDKN1A. The experiment in a line: qRT-PCR of BCL6 downstream gene CDKN1A in ovarian cancer cells. Type of data set: cell-based. Particulars: ES-2, H08910PM, SKOV3, 24 h.
Data set [11] relates to normal cell lines HAF, L02, NCM460, 293T, PNT1A (正常细胞株). The experiment in a line: SRB proliferation assay, normal cell lines. The data set is classed as cell-based, human. As to conditions: Fig. 4(C). In general terms: In SRB staining, fixed cells bind dye roughly in proportion to their protein.
The test system of data set [12] is PARP. The experiment in a line: PARP protein by electrophoresis (blot), SKOV3. The data set is classed as cell-based, human.
The test system of data set [13] is SKOV3 cells. The experiment in a line: Cell cycle by flow cytometry, SKOV3. The data set is classed as cell-based, human. Particulars: SKOV3, 24 h.
The test system of data set [14] is CyclinB1, cdc25C, CyclinD1. The experiment in a line: Cell cycle regulatory proteins by electrophoresis (blot), ES-2. Type of data set: cell-based, human.
Data set [15] relates to ES-2 cells. The experiment in a line: Cell cycle by flow cytometry, ES-2. Type of data set: cell-based, human. Particulars: ES-2, 24 h.
A short description of data set [16]: Body weight, behaviour and organ HE staining in SKOV3 xenograft mice.
Data set [17] has as its system BCL6-high-expressing ovarian cancer cells ES-2, SKOV3, H08910PM, MCAS, CAOV3, OVCAR8 (BCL6高表达卵巢癌细胞). The experiment in a line: Colony formation assay. Type of data set: cell-based, human.
The test system of data set [18] is ES-2 cells. The experiment in a line: Transwell invasion assay, ES-2. Type of data set: cell-based, human.
Data set [19] deals with mouse germinal center formation (小鼠生发中心的形成). The experiment in a line: Mouse germinal center formation model. The data set is classed as in vivo. Particulars: 50mg/kg/d, intraperitoneal, 12 days.
Data set [20] has as its system ES-2 cells. The experiment in a line: ES-2-luc ovarian cancer intraperitoneal metastasis mouse model. The data set is classed as in vivo, human ES-2 cells in mouse. As to conditions: 50mg/kg.
Another data set relates to ATR. The experiment in a line: qRT-PCR of BCL6 downstream gene ATR in ovarian cancer cells. The data set is classed as cell-based. As to conditions: ES-2, H08910PM, SKOV3, 24 h.
Data set [21] deals with ES-2 cells. The experiment in a line: Scratch lateral migration assay, ES-2. As to conditions: 1, 5, 10 μM, about 12 h. The data set is classed as cell-based, human.
For data set [22] the following is noted: mouse, in vivo.
Data set [23] has as its target T2, BCL6-SMRT interaction (BCL6片段蛋白与多肽SMRT的相互作用) (Homo sapiens, UniProt P41182).
T2 construct: 本发明所需BCL6蛋白N端的BTB/POZ结构域序列为; made in house
The experiment in a line: HTRF assay of inhibition of BCL6 fragment protein - SMRT polypeptide interaction. The data set is classed as biochemical.

The test system of data set [24] is BCL6 transcriptional repression activity (BCL6的转录抑制活性). The experiment in a line: Luciferase reporter gene assay of BCL6 transcriptional repression (293T cells). As to conditions: 24 h. The data set is classed as cell-based.
Data set [25] concerns CyclinB1, cdc25C, CyclinD1. The experiment in a line: Cell cycle regulatory proteins by electrophoresis (blot), SKOV3. Type of data set: cell-based, human.
For a further data set, the system named is P53. The experiment in a line: qRT-PCR of BCL6 downstream gene P53 in ovarian cancer cells. The data set is classed as cell-based. Particulars: ES-2, H08910PM, SKOV3, 24 h.
The test system of a further data set is SKOV3 tumor (SKOV3肿瘤). The experiment in a line: SKOV3 subcutaneous xenograft in nude mice, tumor growth. As to conditions: intraperitoneal once daily, about 21 days. Type of data set: in vivo, human SKOV3 cells in nude mouse.
For another data set, the system named is Ki67. The experiment in a line: Immunohistochemistry of Ki67 in SKOV3 xenograft. Type of data set: in vivo, human SKOV3 cells in nude mouse.
For data set [26], the system named is BCL6-low-expressing ovarian cancer cell line IGROV-1 (BCL6低表达卵巢癌细胞株). The experiment in a line: SRB proliferation assay, BCL6-low ovarian cancer cell line. Type of data set: cell-based, human.
Data set [27] concerns patients with platinum-sensitive recurrent ovarian cancer (铂敏感的复发型卵巢癌患者). Particulars: clinical phase II and III; cited from earlier work.

Bounds are passed on as bounds.

Regarding `O=C(O)CC(C(=O)O)N1C(=O)C(=C2C(=O)Nc3ccc(Br)cc32)SC1=S` (stereo not shown) [79-6], the “concentration exerting function at molecular and cellular level” value at BCL6 [1] was over 50 µM.
As to `CNC(=O)COc1cc2cc(Nc3nc(N4C[C@H](C)C[C@H](C)C4)ncc3Cl)ccc2n(C)c1=O` [BI3802], the absorption result in data set [2] was “很难被吸收”. In addition, the “biological activity at animal level” value on BCL6 [3] is reported as “生物活性差”.
On to `C[C@@H]1CN(c2ncc(F)c(Nc3ccc4oc(=O)ccc4c3)n2)C[C@H](C)N1` [WK369], for which the “induction of apoptosis compared with positive compound” value in the data set with SKOV3 cells [4] and in the data set with ES-2 cells [5] was “更显著地诱导” in each case. Also, in data set [6], the toxicity entry was “没有明显毒性”. Moreover, the “full-length PARP protein” value in the data set on PARP [7] and in the data set with PARP [12] was “显著下调” each time. In addition, the “truncated PARP protein” value with PARP [7] and in the data set with PARP [12] was “上调” throughout. Besides, the “upregulation of BCL6 downstream genes in vivo compared with positive compound” value in data set [8] is on record as “更好地上调”. Also, the “number of invading cells” value in the data set on SKOV3 cells [9] (SKOV3, 1 μM, 12-24 h) is reported as “已显著减少”; in the data set with ES-2 cells [18] (ES-2, 1 μM, 12-24 h), “已显著减少”. Besides, the cells that invade entry with SKOV3 cells [9] (SKOV3, 10 μM, 12-24 h) is “只有极少数的细胞发生侵袭”; with ES-2 cells [18] (ES-2, 10 μM, 12-24 h), “只有极少数的细胞发生侵袭”. Also, the inhibition of invasion entry in the data set with SKOV3 cells [9] (SKOV3, high concentration (FX1 10 μM), WK369 1, 5, 10 μM) is given as “显著抑制”; with ES-2 cells [18] (ES-2, high concentration (FX1 10 μM), WK369 1, 5, 10 μM), “显著抑制”. Further, the inhibition of migration entry with SKOV3 cells [10] and with ES-2 cells [21] was “浓度依赖性地抑制” each time. In addition, in the data set on CDKN1A (1, 5, 10, 20 μM, highest), the “upregulation of CDKN1A expression” value was “最高可上调几十倍”. The “upregulation of CDKN1A expression compared with FX1” value in the data set on CDKN1A (FX1 20 μM) is recorded as “更为显著地上调”. The “difference in half-maximal proliferation inhibition activity between human ovarian cancer and human normal cell lines” value in [11] is “具有显著性差异”. The “cell cycle arrest at G2M phase” value in the data set with SKOV3 cells [13] and in the data set on ES-2 cells [15] was “浓度依赖性地诱导” in each case. The CyclinB1 expression entry in data set [14] and in data set [25] was “显著下调” in each case. Besides, the CyclinD1 expression result in [14] and in [25] was “显著下调” each time. Also, the cdc25C expression entry in data set [14] and in data set [25] was “显著下调” in each case. The “toxicity to major organs (heart, liver, spleen, lung, kidney), HE staining” value in data set [16] was “没有明显毒性”. Also, the “inhibition of colony formation compared with FX1” value in [17] (BCL6-high-expressing lines) was “显著优于阳性化合物FX1”. The “inhibition of colony formation” value in data set [17] (BCL6-high-expressing lines, one week) is given as “很显著的抑制效果”. For the same molecule, in [17] (compared with BCL6-low-expressing line), the “inhibition of colony formation, BCL6-high compared with BCL6-low ovarian cancer cell lines” value is given as “对BCL6高表达卵巢癌细胞株的抑制效果更为明显”. Also, the “decrease in germinal center B cell proportion compared with positive compound” value in data set [19] was “下降比例更为显著”. The “inhibition of mouse germinal center formation” value in data set [19] is recorded as “均能抑制小鼠生发中心的形成”. For the same molecule, the “survival rate of mice” value in the data set with ES-2 cells [20] was “有效提高”. Moreover, the “intraperitoneal spread and metastasis” value in the data set with ES-2 cells [20] (30 days) is listed as “有效抑制”. Moreover, the “tumor growth (bioluminescence)” value with ES-2 cells [20] (30 days) is recorded as “显著降低”. Also, the “number of tumor nodules on the surface of abdominal organs (liver, spleen, kidney, intestine, ovary)” value with ES-2 cells [20] (30 days, compared with control group) is listed as “明显减少”. The “upregulation of ATR expression” value in the data set on ATR (1, 5, 10, 20 μM) is “几倍至十几倍”. Also, the “upregulation of ATR expression compared with FX1” value in the data set on ATR (FX1 20 μM) is given as “更为显著地上调”. Besides, the “abnormal behaviour and adverse reactions” value in [22] was “并未发现小鼠异常行为和不良反应”. In [22], the “body weight change compared with blank control” value was “没有明显变化”. Also, the IC50 in data set [23] (6His-SMRT 200 nM, BCL6-GST 6.25 nM, room temperature overnight, read-out: half-maximal inhibitory concentration (IC50)) was 0.315 µM; in data set [26] (BCL6-low-expressing ovarian cancer cells (IGROV-1), 72 h, read-out: half-maximal proliferation inhibition activity) it was about 16 µM. The “fold improvement over FX1 in inhibiting BCL6 fragment protein - SMRT interaction” value in [23] (WK369 versus positive compound FX1) was about 120 fold. In addition, the “BCL6 transcriptional repression activity at 20 μM” value in [24] (20 μM) was “完全消除”. Also, in [24] (concentration series, compared with positive compound), the “inhibition of BCL6 transcriptional repression activity” value is listed as “浓度依赖性抑制BCL6的转录抑制活性,效果显著优于阳性化合物”. For the same molecule, the “upregulation of P53 expression” value in the data set on P53 (1, 5, 10, 20 μM) was “几倍至十几倍”. For the same molecule, in the data set on P53 (FX1 20 μM), the “upregulation of P53 expression compared with FX1” value was “更为显著地上调”. Besides, the “inhibition of tumor growth compared with FX1 (50mg/kg)” value in the data set with SKOV3 tumor (SKOV3肿瘤) (25mg/kg) is on record as “显著优于阳性化合物FX1”. Also, the “inhibition of tumor growth, 50mg/kg compared with 25mg/kg” value in the data set with SKOV3 tumor (SKOV3肿瘤) (50mg/kg vs 25mg/kg) was “效果显著优于本发明化合物WK36925mg/kg的给药剂量”. Also, the tumor proliferation result with SKOV3 tumor (SKOV3肿瘤) (50mg/kg) is “肿瘤增殖非常缓慢”. In addition, the “inhibition of tumor growth” value in the data set on SKOV3 tumor (SKOV3肿瘤) (25 and 50mg/kg) is “有效抑制肿瘤的生长”. In the data set on Ki67, the “expression of tumor proliferation marker Ki67” value is on record as “显著降低”. In addition, the “difference in half-maximal proliferation inhibition activity between BCL6-high and BCL6-low ovarian cancer cell lines” value in [26] (Fig. 4(D)) is “具有显著性差异”.
Regarding `O=C(c1cc(Cc2n[nH]c(=O)c3ccccc23)ccc1F)N1CCN(C(=O)C2CC2)CC1` [奥卡帕尼], the “overall survival (OS)” value in data set [27] was “并不能延长”.

(Values after patent publication CN112516145A, “小分子化合物wk369在制备治疗卵巢癌药物中的应用” (East China Normal University, priority 2019, dated 2021).)
